Assay results taken from ChEMBL document CHEMBL1138518 (J Med Chem, 2009).

Test system: SK-BR-3
Test: Cytotoxicity against human SKBR3 cells after 72 hrs by celltiter-glo assay
Type: functional, cell-based
Conditions: Homo sapiens, SK-BR-3, 72 h

Compound	IC50 [nM]
CO[C@H]1/C=C\C=C(/C)C(=O)NC2=CC(=O)C(NCCN(C)C)=C(C[C@@H](C)C[C@H](OC)[C@H](NCCF)[C@@H](C)/C=C(\C)[C@@H]1OC(N)=O)C2=O (stereo in doubt)	390
COC1=C2C[C@@H](C)C[C@H](OC)[C@H](OC(=O)CN)[C@@H](C)/C=C(\C)[C@H](OC(N)=O)[C@@H](OC)/C=C\C=C(/C)C(=O)NC(=CC1=O)C2=O (stereo in doubt)	480
CO[C@H]1[C@@H](OC)C[C@H](C)CC2=C(N3CCC3)C(=O)C=C(NC(=O)/C(C)=C/C=C\[C@H](OC)[C@@H](OC(N)=O)/C(C)=C/[C@@H]1C)C2=O (stereo in doubt)	24
CO[C@H]1/C=C\C=C(/C)C(=O)NC2=CC(=O)C(NCCN(C)C)=C(C[C@@H](C)C[C@H](OC)[C@H](NCCN(C)C)[C@@H](C)/C=C(\C)[C@@H]1OC(N)=O)C2=O (stereo in doubt)	460
C=CCNC1=C2C[C@@H](C)C[C@H](OC)[C@H](OC)[C@@H](C)/C=C(\C)[C@H](OC(N)=O)[C@@H](OC)/C=C\C=C(/C)C(=O)NC(=CC1=O)C2=O (stereo in doubt)	280
C=CCNC1=C2C[C@@H](C)C[C@H](OC)[C@H](OC(=O)CN)[C@@H](C)/C=C(\C)[C@H](OC(N)=O)[C@@H](OC)/C=C\C=C(/C)C(=O)NC(=CC1=O)C2=O (stereo in doubt)	350
CO[C@H]1[C@@H](OC)C[C@H](C)CC2=C(NCCF)C(=O)C=C(NC(=O)/C(C)=C/C=C\[C@H](OC)[C@@H](OC(N)=O)/C(C)=C/[C@@H]1C)C2=O (stereo in doubt)	130
CO[C@H]1/C=C\C=C(/C)C(=O)NC2=CC(=O)C(NCCN(C)C)=C(C[C@@H](C)C[C@H](OC)[C@H](NCCC(F)(F)F)[C@@H](C)/C=C(\C)[C@@H]1OC(N)=O)C2=O (stereo in doubt)	830
CO[C@H]1[C@@H](OC)C[C@H](C)CC2=C(NCCc3c[nH]cn3)C(=O)C=C(NC(=O)/C(C)=C/C=C\[C@H](OC)[C@@H](OC(N)=O)/C(C)=C/[C@@H]1C)C2=O (stereo in doubt)	60

Molecular target: Heat shock protein HSP 90-beta (Homo sapiens, UniProt P08238)
Sequence (P08238 whole entry): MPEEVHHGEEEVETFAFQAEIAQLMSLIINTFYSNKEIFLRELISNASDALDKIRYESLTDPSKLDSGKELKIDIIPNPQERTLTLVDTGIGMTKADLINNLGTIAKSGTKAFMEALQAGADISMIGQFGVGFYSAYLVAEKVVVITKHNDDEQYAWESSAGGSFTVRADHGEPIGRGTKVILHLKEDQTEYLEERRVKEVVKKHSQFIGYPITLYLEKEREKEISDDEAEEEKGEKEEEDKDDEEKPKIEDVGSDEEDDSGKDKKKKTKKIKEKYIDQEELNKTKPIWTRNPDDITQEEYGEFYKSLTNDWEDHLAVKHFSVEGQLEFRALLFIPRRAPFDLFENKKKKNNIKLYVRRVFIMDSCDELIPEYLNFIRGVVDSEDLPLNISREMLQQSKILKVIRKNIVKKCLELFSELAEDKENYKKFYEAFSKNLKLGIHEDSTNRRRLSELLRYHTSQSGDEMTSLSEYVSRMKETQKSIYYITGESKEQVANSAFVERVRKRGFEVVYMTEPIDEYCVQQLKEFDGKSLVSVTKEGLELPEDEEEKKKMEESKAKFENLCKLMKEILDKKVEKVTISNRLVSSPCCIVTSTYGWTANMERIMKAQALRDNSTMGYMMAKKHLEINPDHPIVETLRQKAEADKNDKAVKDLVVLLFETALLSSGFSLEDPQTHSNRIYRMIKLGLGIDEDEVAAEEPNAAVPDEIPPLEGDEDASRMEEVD
Test: Binding affinity to human recombinant HSP90
Conditions: not given

Compound	Kd [nM]
CO[C@H]1/C=C\C=C(/C)C(=O)NC2=CC(=O)C(NCCN(C)C)=C(C[C@@H](C)C[C@H](OC)[C@H](NCCF)[C@@H](C)/C=C(\C)[C@@H]1OC(N)=O)C2=O (stereo in doubt)	> 50000
COC1=C2C[C@@H](C)C[C@H](OC)[C@H](OC(=O)CN)[C@@H](C)/C=C(\C)[C@H](OC(N)=O)[C@@H](OC)/C=C\C=C(/C)C(=O)NC(=CC1=O)C2=O (stereo in doubt)	> 25000
CO[C@H]1[C@@H](OC)C[C@H](C)CC2=C(N3CCC3)C(=O)C=C(NC(=O)/C(C)=C/C=C\[C@H](OC)[C@@H](OC(N)=O)/C(C)=C/[C@@H]1C)C2=O (stereo in doubt)	4000
C=CCNC1=C2C[C@@H](C)C[C@H](OC)[C@H](OC(=O)CN)[C@@H](C)/C=C(\C)[C@H](OC(N)=O)[C@@H](OC)/C=C\C=C(/C)C(=O)NC(=CC1=O)C2=O (stereo in doubt)	> 25000
CO[C@H]1[C@@H](OC)C[C@H](C)CC2=C(NCCF)C(=O)C=C(NC(=O)/C(C)=C/C=C\[C@H](OC)[C@@H](OC(N)=O)/C(C)=C/[C@@H]1C)C2=O (stereo in doubt)	2300
CO[C@H]1[C@@H](OC)C[C@H](C)CC2=C(NCCc3c[nH]cn3)C(=O)C=C(NC(=O)/C(C)=C/C=C\[C@H](OC)[C@@H](OC(N)=O)/C(C)=C/[C@@H]1C)C2=O (stereo in doubt)	2000

The remaining lines, values ahead:

Kd [nM]	Compound
> 50000	CO[C@H]1/C=C\C=C(/C)C(=O)NC2=CC(=O)C(NCCN(C)C)=C(C[C@@H](C)C[C@H](OC)[C@H](NCCN(C)C)[C@@H](C)/C=C(\C)[C@@H]1OC(N)=O)C2=O (stereo in doubt)
2800	C=CCNC1=C2C[C@@H](C)C[C@H](OC)[C@H](OC)[C@@H](C)/C=C(\C)[C@H](OC(N)=O)[C@@H](OC)/C=C\C=C(/C)C(=O)NC(=CC1=O)C2=O (stereo in doubt)
> 10000	CO[C@H]1/C=C\C=C(/C)C(=O)NC2=CC(=O)C(NCCN(C)C)=C(C[C@@H](C)C[C@H](OC)[C@H](NCCC(F)(F)F)[C@@H](C)/C=C(\C)[C@@H]1OC(N)=O)C2=O (stereo in doubt)

Test system: not listed separately
Test: Chemical stability assessed as half life at pH 7.75
Type: physicochemical
Conditions: buffer

half-life [h]	Compound
95	COC1=C2C[C@@H](C)C[C@H](OC)[C@H](OC(=O)CN)[C@@H](C)/C=C(\C)[C@H](OC(N)=O)[C@@H](OC)/C=C\C=C(/C)C(=O)NC(=CC1=O)C2=O (stereo in doubt)
78	C=CCNC1=C2C[C@@H](C)C[C@H](OC)[C@H](OC(=O)CN)[C@@H](C)/C=C(\C)[C@H](OC(N)=O)[C@@H](OC)/C=C\C=C(/C)C(=O)NC(=CC1=O)C2=O (stereo in doubt)

Test system: not listed separately
Test: Dissociation constant, pKa of the compound
Type: physicochemical
Conditions: not given

pKa	Compound
6	CO[C@H]1/C=C\C=C(/C)C(=O)NC2=CC(=O)C(NCCN(C)C)=C(C[C@@H](C)C[C@H](OC)[C@H](NCCN(C)C)[C@@H](C)/C=C(\C)[C@@H]1OC(N)=O)C2=O (stereo in doubt)
8.9	CO[C@H]1/C=C\C=C(/C)C(=O)NC2=CC(=O)C(NCCN(C)C)=C(C[C@@H](C)C[C@H](OC)[C@H](NCCC(F)(F)F)[C@@H](C)/C=C(\C)[C@@H]1OC(N)=O)C2=O (stereo in doubt)

Compound	pKa
CO[C@H]1/C=C\C=C(/C)C(=O)NC2=CC(=O)C(NCCN(C)C)=C(C[C@@H](C)C[C@H](OC)[C@H](NCCF)[C@@H](C)/C=C(\C)[C@@H]1OC(N)=O)C2=O (stereo in doubt)	9

Test system: MCF7
Test: Cytotoxicity against human MCF7 cells after 72 hrs by celltiter-glo assay
Type: functional, cell-based
Conditions: MCF7, 72 h

Compound	IC50 [nM]
CO[C@H]1[C@@H](OC)C[C@H](C)CC2=C(N3CCC3)C(=O)C=C(NC(=O)/C(C)=C/C=C\[C@H](OC)[C@@H](OC(N)=O)/C(C)=C/[C@@H]1C)C2=O (stereo in doubt)	63
C=CCNC1=C2C[C@@H](C)C[C@H](OC)[C@H](OC)[C@@H](C)/C=C(\C)[C@H](OC(N)=O)[C@@H](OC)/C=C\C=C(/C)C(=O)NC(=CC1=O)C2=O (stereo in doubt)	760
CO[C@H]1[C@@H](OC)C[C@H](C)CC2=C(NCCF)C(=O)C=C(NC(=O)/C(C)=C/C=C\[C@H](OC)[C@@H](OC(N)=O)/C(C)=C/[C@@H]1C)C2=O (stereo in doubt)	58
CO[C@H]1[C@@H](OC)C[C@H](C)CC2=C(NCCc3c[nH]cn3)C(=O)C=C(NC(=O)/C(C)=C/C=C\[C@H](OC)[C@@H](OC(N)=O)/C(C)=C/[C@@H]1C)C2=O (stereo in doubt)	160

Test system: SK-OV-3
Test: Cytotoxicity against human SKOV3 cells after 72 hrs by celltiter-glo assay
Type: functional, cell-based
Conditions: SK-OV-3, 72 h

Compound	IC50 [nM]
CO[C@H]1[C@@H](OC)C[C@H](C)CC2=C(N3CCC3)C(=O)C=C(NC(=O)/C(C)=C/C=C\[C@H](OC)[C@@H](OC(N)=O)/C(C)=C/[C@@H]1C)C2=O (stereo in doubt)	110
C=CCNC1=C2C[C@@H](C)C[C@H](OC)[C@H](OC)[C@@H](C)/C=C(\C)[C@H](OC(N)=O)[C@@H](OC)/C=C\C=C(/C)C(=O)NC(=CC1=O)C2=O (stereo in doubt)	1300
CO[C@H]1[C@@H](OC)C[C@H](C)CC2=C(NCCF)C(=O)C=C(NC(=O)/C(C)=C/C=C\[C@H](OC)[C@@H](OC(N)=O)/C(C)=C/[C@@H]1C)C2=O (stereo in doubt)	460
CO[C@H]1[C@@H](OC)C[C@H](C)CC2=C(NCCc3c[nH]cn3)C(=O)C=C(NC(=O)/C(C)=C/C=C\[C@H](OC)[C@@H](OC(N)=O)/C(C)=C/[C@@H]1C)C2=O (stereo in doubt)	320

Test system: A549
Test: Cytotoxicity against human A549 cells after 72 hrs by celltiter-glo assay
Type: functional, cell-based
Conditions: A549, 72 h

Compound	IC50 [nM]
CO[C@H]1[C@@H](OC)C[C@H](C)CC2=C(N3CCC3)C(=O)C=C(NC(=O)/C(C)=C/C=C\[C@H](OC)[C@@H](OC(N)=O)/C(C)=C/[C@@H]1C)C2=O (stereo in doubt)	29
C=CCNC1=C2C[C@@H](C)C[C@H](OC)[C@H](OC)[C@@H](C)/C=C(\C)[C@H](OC(N)=O)[C@@H](OC)/C=C\C=C(/C)C(=O)NC(=CC1=O)C2=O (stereo in doubt)	360
CO[C@H]1[C@@H](OC)C[C@H](C)CC2=C(NCCF)C(=O)C=C(NC(=O)/C(C)=C/C=C\[C@H](OC)[C@@H](OC(N)=O)/C(C)=C/[C@@H]1C)C2=O (stereo in doubt)	67
CO[C@H]1[C@@H](OC)C[C@H](C)CC2=C(NCCc3c[nH]cn3)C(=O)C=C(NC(=O)/C(C)=C/C=C\[C@H](OC)[C@@H](OC(N)=O)/C(C)=C/[C@@H]1C)C2=O (stereo in doubt)	420

Test system: CCRF-CEM
Test: Cytotoxicity against human CCRF-CEM cells after 72 hrs by celltiter-96 aqueous one solution assay
Type: functional, cell-based
Conditions: not given

Compound	IC50 [nM]
CO[C@H]1[C@@H](OC)C[C@H](C)CC2=C(N3CCC3)C(=O)C=C(NC(=O)/C(C)=C/C=C\[C@H](OC)[C@@H](OC(N)=O)/C(C)=C/[C@@H]1C)C2=O (stereo in doubt)	420
C=CCNC1=C2C[C@@H](C)C[C@H](OC)[C@H](OC)[C@@H](C)/C=C(\C)[C@H](OC(N)=O)[C@@H](OC)/C=C\C=C(/C)C(=O)NC(=CC1=O)C2=O (stereo in doubt)	2500
CO[C@H]1[C@@H](OC)C[C@H](C)CC2=C(NCCF)C(=O)C=C(NC(=O)/C(C)=C/C=C\[C@H](OC)[C@@H](OC(N)=O)/C(C)=C/[C@@H]1C)C2=O (stereo in doubt)	960
CO[C@H]1[C@@H](OC)C[C@H](C)CC2=C(NCCc3c[nH]cn3)C(=O)C=C(NC(=O)/C(C)=C/C=C\[C@H](OC)[C@@H](OC(N)=O)/C(C)=C/[C@@H]1C)C2=O (stereo in doubt)	510

Test system: CCRF-CEM
Test: Cytotoxicity against human paclitaxel-resistant CCRF-CEM cells after 72 hrs by celltiter-96 aqueous one solution assay
Type: functional, cell-based
Conditions: not given

Compound	IC50 [nM]
CO[C@H]1[C@@H](OC)C[C@H](C)CC2=C(N3CCC3)C(=O)C=C(NC(=O)/C(C)=C/C=C\[C@H](OC)[C@@H](OC(N)=O)/C(C)=C/[C@@H]1C)C2=O (stereo in doubt)	2500
C=CCNC1=C2C[C@@H](C)C[C@H](OC)[C@H](OC)[C@@H](C)/C=C(\C)[C@H](OC(N)=O)[C@@H](OC)/C=C\C=C(/C)C(=O)NC(=CC1=O)C2=O (stereo in doubt)	3500
CO[C@H]1[C@@H](OC)C[C@H](C)CC2=C(NCCF)C(=O)C=C(NC(=O)/C(C)=C/C=C\[C@H](OC)[C@@H](OC(N)=O)/C(C)=C/[C@@H]1C)C2=O (stereo in doubt)	2700
CO[C@H]1[C@@H](OC)C[C@H](C)CC2=C(NCCc3c[nH]cn3)C(=O)C=C(NC(=O)/C(C)=C/C=C\[C@H](OC)[C@@H](OC(N)=O)/C(C)=C/[C@@H]1C)C2=O (stereo in doubt)	3000
